Measured values published in paper PMC5136666, “Epobis is a Nonerythropoietic and Neuroprotective Agonist of the Erythropoietin Receptor with Anti-Inflammatory and Memory Enhancing Effects” (Mediators of Inflammation, 2016).
Positions of bridges follow the written chain, without caps; N, C: chain ends. Chains are numbered I, II in the order given. No end group written: not given here.

Key:
[1] = test system: TNF secretion from AMJ2-C8 macrophages; assay: Macrophage activation assay (TNF secretion estimated from L-cell viability); format: cell-based, mouse; details: untreated ~48%, MTS, 4 experiments
Procedure: The macrophage activation assay is used to estimate tumor necrosis factor (TNF) secretion from the macrophage cell line AMJ2-C8 (ATCC; Boras, Sweden). Fibroblastoid mouse L929 cells (L-cells; ECCC, Salisbury, UK) are sensitive to TNF upon exposure to actinomycin D, and L-cell survival can therefore be utilized as an indirect estimate of TNF concentrations. The assay was performed essentially as described previously. Briefly, AMJ2-C8 cells were plated in 6-well MultiDish plates (Nunc, Denmark) and treated with 100 μM hydrocortisone (Sigma-Aldrich, Brøndby, Denmark), […] (8.4 nM) rhEPO (Calbiochem, Merck Millipore, Denmark), or Epobis (0.9–8.1 μM) for 24 h. They were then exposed to 10 ng/mL interferon-γ (IFN-γ) (R&D Systems, UK) for 24 h to induce the production of TNF [34].
L-cells were seeded in 96-well Multiwell plates (2 × 10^5 cells/mL, 100 μL/well; Nunc) and grown for 24 h. Then conditioned medium from stimulated macrophages was collected and added to the L-cells together with actinomycin D (Sigma, Sigma-Aldrich). L-cell viability was assayed 24 h later by the MTS assay (Promega, Madison, WI, USA) according to the manufacture's protocol. Cell viability was calculated as follows: (1) cell viability %=ODexperiment/ODcontrol×100. […]

[2] = test system: hematocrit and hemoglobin levels in mice; assay: Hematopoiesis assay; format: in vivo; details: 10 mg/kg s.c. twice per week for 5 weeks, female C57BL/6J mice
Procedure: Estimates of hematopoietic activity of Epobis in female C57BL/6J mice were performed essentially as described previously. Briefly, Epobis (10 mg/kg), EPO (10 mg/kg; Calbiochem), or vehicle (PBS) was injected subcutaneously twice per week for 5 weeks. Blood samples were collected from the orbital plexus once per week, and hemoglobin levels and hematocrit values were determined as described.

primary rat motoneurons = assay: Neurite outgrowth from primary motoneurons; format: cell-based; details: 24 h, bell-shaped concentration dependence, p < 0.0001, 3 independent experiments
Procedure: Primary rat motoneurons were isolated as described previously. Briefly, the ventral horns of the lumbar spinal cord were dissected from Wistar rat embryos (E15). The dissociated motoneurons were plated at a density of 7,000 cells per well on laminin-coated (5 μg/mL; Sigma-Aldrich) 8-well LabTek Permanox slides (NUNC, Denmark). Neurons were stimulated with serially diluted Epobis peptide for 24 h, fixed with 4% formalin, stained with polyclonal rabbit anti-rat growth-associated protein-43 antibodies (1 : 1000; Millipore), and analyzed by computer-assisted fluorescence microscopy as described.

[3] = test system: TNF secretion from rat primary microglia; assay: LPS-induced TNF release from rat primary microglia (ELISA); format: cell-based; details: 0.9 μM, 1 h pretreatment, LPS 100 ng/mL 24 h, p < 0.05, 3 experiments
Procedure: Mixed glial cultures were prepared from 1-day-old to 2-day-old Wistar rat pups as described previously. Briefly, cortices were dissected, roughly chopped, and incubated in prewarmed 0.5% trypsin for 10 min. Then Dulbecco's modified Eagle's medium (DMEM) plus GlutaMAX (culture media; Gibco) containing 10% fetal calf serum, penicillin (100 U/mL), and streptomycin (100 U/mL) was added and tissue was triturated. The suspension was centrifuged at 500 ×g for 10 min, and the resulting pellet was resuspended in culture media and plated in a poly-L-lysine-coated T180 flask. The mixed glial culture was grown for 2-3 weeks at 37°C in a humidified 5% CO2 : 95% air environment. The medium was changed first at day 2 after culture preparation and then every 5-6 days. […] Images were recorded using a Zeiss Axiovert 100 microscope mounted with an AxioCam MRm camera using the accompanying ZEN 2012 software.
To induce TNF secretion, microglia cells were treated with lipopolysaccharide (LPS; 100 ng/mL; Sigma) following 1 h pretreatment in the absence or presence of Epobis. Conditioned media were collected 24 h later and released TNF was determined using a rat TNF Ready-SET-Go!® ELISA kit according to the manufacturer's instructions (eBioscience, San Diego, USA).

[4] = Detection of Epobis in plasma and cerebrospinal fluid; format: in vivo, Wistar rats; details: rat
Procedure: Detection of biotinylated Epobis in plasma was performed essentially as described previously. Briefly, 10 mg/kg Epobis was injected subcutaneously (s.c.) in anaesthetized 200 g Wistar rats, and blood samples were collected from the orbital plexus at selected time points. Cerebrospinal fluid (CSF) was sampled from the cisterna magna as described previously.
Subsequently the concentrations of peptide in serum plasma and CSF were estimated using a competitive enzyme-linked immunosorbent assay, where all samples were run in duplicate.

EAE in Lewis rats = assay: Experimental autoimmune encephalomyelitis (EAE); format: in vivo
Procedure: Experimental autoimmune encephalomyelitis (EAE) was induced as described previously. Briefly, female Lewis rats (200 g) received subcutaneous injections at both sides of the base of the tail with 0.2 mL of an emulsion containing 1 g/L Guinea pig myelin basic protein and 1 g/L M. tuberculosis in Freund's complete adjuvant (all from Sigma-Aldrich). The injections were performed under full inhalation anesthesia. EAE was induced in 30 animals; 6 healthy, age-matched, unimmunized rats were used as controls. Between day 0 and day 21, the weight and clinical signs of EAE were recorded daily for all animals. Clinical signs were scored as follows: 0, no abnormality; 0.5, weak tail; 1, limp tail; 2, mild palsy of one or both hind legs; 3, severe palsy of one or both hind legs; 4, complete paralysis of one or both hind legs; 5, paralysis of one or both hind legs and beginning paralysis of front legs; 6, moribund. Animals with a clinical score ≥4 were sacrificed immediately.
Starting at day 10 after induction of EAE, animals were treated once/day for 5 consecutive days with Epobis (10 mg/kg, 1 mL/kg, s.c.) or PBS (1.0 mL/kg, s.c.). The control group is identical to the control group of previously published data performed simultaneously with the Epobis study.

[5] = test system: short-term/working memory of adult rats; assay: Social recognition test; format: in vivo, rat; details: 10 mg/kg single s.c., healthy adult rats
Procedure: The social recognition assay evaluates short-term/working memory of adult rats, a type of memory known to be impaired in old (>18 month) rats and in rats experiencing early stage AD [38]. Social recognition in rats was evaluated essentially as described previously. First, a habituation session was carried out; 24 h later, Epobis (10 mg/kg, 1 mL/kg, s.c.) or PBS (1.0 mL/kg, s.c.) was administered, and 1 h later the test animals were introduced to a new, juvenile male rat for 4 min (initial trial). After another 2.5 h the same juvenile rat was reintroduced, or as a control, an unfamiliar juvenile rat was introduced (test trial). To test long-term effects of the peptide, another social recognition test was performed with the initial trial taking place 73 h after administration of test compounds. Data are expressed as a recognition ratio: RR = T2/(T2 + T1), where T1 and T2 are the times spent on investigating the juvenile animal during the initial and the test trial, respectively.

EPO receptor = details: surface plasmon resonance; read-out: apparent KD; cited from earlier work
Source text: We have previously designed two synthetic, dendrimeric peptides with sequences corresponding to the first and the second EPO receptor binding site of human EPO, respectively. The peptide derived from binding site 2 was named Epotris and has previously been reported to promote neuritogenesis and neuronal survival in vitro and in vivo in a nonerythropoietic manner and to attenuate status epilepticus. The peptide derived from binding site 1 (residues 36–53 in the structural model of the EPO:EPO receptor-complex; PDB: 1EER [27]) was named Epobis, and surface plasmon resonance analy ...

[6] = biotinylated Epobis, 10 mg/kg single s.c., competitive ELISA, n = 6
[7] = 10 mg/kg s.c. once/day for 5 days from day 10, Lewis rats

Row | Substance | L-cell viability relative to control ([1]; conditioned medium from IFN-γ-activated AMJ2-C8 macrophages pretreated 24 h with 8.4 nM EPO) | effect on hematocrit [2] | effect on hemoglobin levels [2] | concentration of maximal stimulation of neurite outgrowth (primary rat motoneurons) | L-cell viability relative to control (highest) ([1]; conditioned medium from IFN-γ-activated AMJ2-C8 macrophages pretreated 24 h with 2.7 μM Epobis, p < 0.05) | LPS-induced TNF secretion from microglia [3] | plasma : CSF ratio ([4]; 2 h after single s.c. 10 mg/kg) | time of peak plasma concentration [4, 6] | time the peptide remained detectable in blood [4, 6] | effect on survival of EAE animals versus vehicle (EAE in Lewis rats; [7]) | effect on weight changes of EAE animals versus vehicle (EAE in Lewis rats; [7]) | activated microglia in the brain stem of EAE animals, Epobis versus vehicle (EAE in Lewis rats; 10 mg/kg s.c. once/day for 5 days from day 10, immunohistochemistry) | clinical signs of EAE versus vehicle, later time points (EAE in Lewis rats; 10 mg/kg s.c. once/day for 5 days from day 10, n = 10) | clinical signs of EAE versus vehicle, day 2 after onset (EAE in Lewis rats; 10 mg/kg s.c. once/day for 5 days from day 10, n = 10, p < 0.05) | recognition ratio (RR) versus vehicle, test 73 h after administration ([5]; n = 12, t-test p < 0.018, different from 0.5 p < 0.0001) | recognition ratio (RR) versus vehicle, test 1 h after administration ([5]; n = 12, t-test p > 0.05) | Kd (EPO receptor)
1 | erythropoietin [EPO] | ~ 64% | statistically significant increases | statistically significant increases |  |  |  |  |  |  |  |  |  |  |  |  |  | 
2 | I: NENITVPDTKVNFYAWKRKK-NH2 / II: NENITVPDTKVNFYAWKRK / III: NENITVPDTKVNFYAWKR / IV: NENITVPDTKVNFYAWKR (amide I:19-IV:C, I:20-II:C, II:19-III:C; C-terminus assumed) [Epobis] |  | did not cause any statistically significant increases | did not cause any statistically significant increases | 0.33 µM | ~ 68% | significant decrease | approximately 20 | around 2 h | at least 24 h | no significant effects | no significant effects | no difference | not significantly different | significantly lower | significantly lower | no significant difference | ~0.06 µM
